Results published in publication PMC6770473, “Proximity ligation assay to study protein–protein interactions of proteins on two different cells” (Biotechniques, 2018).
“Also recorded” adds a separate entry of the source.

What was measured:
CD2–CD58 interaction [1] = assay: Proximity ligation assay (PLA), Jurkat T cells / HFLS-RA cells co-culture; assay type: cell-based, human; details: for PPI inhibition by BODIPY conjugate (red fluorescence): BODIPY conjugate of SFTI-a, concentration not printed, compared to control without any peptide; for reduction in number of red dots: compared with control, p < 0.001; for PPI inhibition, number of red dots (ImageJ): vs untreated wells, p < 0.0001 (SAS, GLM)
Experimental: (§1) • Both T cells and HFLS-RA cells were grown to 70% confluency. • Approximately 20,000 Jurkat cells were added to each well, and the chamber slides were incubated for 30 min at 37°C with 5% CO2. • Approximately 10,000 HFLS-RA cells were treated with different concentrations of SFTI-a peptide separately for 2 h at 4°C and added over Jurkat cells that were previously coated onto the well chamber slides. • The slides were incubated for 48 h at 37°C with 5% CO2.
• The medium was gently removed from the corners of the wells. • Enough chilled methanol to cover the surface was added to each well for fixing the cells. • After incubating the slides for 15 min at −20°C, the methanol was removed, and PBS was used to hydrate the slides. • The slides were washed once more with PBS. • Two drops of blocking solution was added to each well, and they were incubated for 90 min at room temperature in a moist chamber.
• The blocking solution was removed, and the slides were washed gently with PBS. • The CD58 and CD2 (Santa Cruz Biotechnology) primary antibodies were used at a dilution of […] by diluting with antibody diluent solution provided in kit (2 μl [CD58 Ab] + 2 μl [CD2 Ab] + 196 μl antibody diluent solution per well). • After addition of primary antibody solution, the slides were incubated overnight at 4°C in a moist chamber with gentle shaking.
• The primary antibody solution was removed, and each well was washed very gently with 100 μl of PBS. • The probe solution was prepared using 1:1:4 ratio of positive probe:negative probe:antibody diluent solution, respectively. • After removing PBS, approximately 80 μl of probe solution was added to each well, which were incubated at 37°C for 1 h in a moist chamber.
• The probe solution was discarded, and all wells were washed twice with 100 μl of wash buffer A. • Ligase solution was prepared by mixing together 16 μl of ligation solution + 2 μl of ligase + 62 μl of high purified water. • 80 μl of this freshly prepared ligase solution was added gently to each well, which were incubated at 37°C for 30 min in a moist chamber.
• All procedures from this step forward were carried out in a dark (light-protected) environment. • After removing the ligase solution, the wells were washed gently twice with wash buffer A. • Amplification/polymerase solution was prepared by mixing together 1 μl polymerase + 16 μl amplification (red) solution + 63 μl purified water. • 80 μl of the above solution was added to each well in the dark, and the plates were incubated in a 37°C moist chamber in the dark for 100 min.
• Amplification/polymerase solution was removed from each well, and they were washed gently twice with 120 μl of wash buffer B. • 0.01x wash buffer B (in phosphate-buffered saline [PBS]) was prepared, and each well was washed with this solution. • The well on slides were removed (wells are removed after all the washing step to prepare the slide for microscopic imaging). • Keeping the slide surface slightly wet with 0.01x wash buffer B, a small amount of mounting medium with DAPI solution was added to the slide. • Coverslips were placed over the slides, and images were obtained by using an Olympus Fluoview 1.0 confocal microscope with DAPI and Texas Red filters.
Wash buffers A and B were provided in the kit. The composition of the buffers is not disclosed by the vendor. A bio-protocol by Lin et al. provides the composition of Duolink in situ buffers A and B. The incubation time of 48 h was established by carrying out PLA at 24- and 48-h times.
Control experiments were conducted with HFLS-RA cells and T cells without addition of primary antibodies to CD2 and CD58 but with addition of secondary antibodies and PLA probes. Experiments were performed as described in steps 1–7 above.
Experiments with HFLS-RA cells and T cells were carried out as described above by adding primary and secondary antibodies only to CD58 and with PLA probes. […]

[2] = test system: CD58 on the cell surface of HFLS-RA cells; assay: Binding of SFTI-a BODIPY conjugate to HFLS-RA cells (fluorescence microscopy); assay type: cell-based, human; details: green fluorescence of BODIPY, Mg+ green filter (excitation 507, emission 531), 60x, concentration not given
Experimental: Synthesis of cyclic peptide SFTI-a, Cyclo(CKASAPPSCYDGDD), was carried out in three major steps: 1) Linear sequence synthesis with an automatic peptide synthesizer (Protein Technologies, Inc., AZ, USA); 2) head-to-tail cyclization; and 3) disulfide bond formation. For fluorescent labeling of peptide SFTI-a, Lys in the peptide sequence was replaced with Lys containing an azide side chain. The azide side chain was used to conjugate fluorescent label 4,4-difluoro-4-bora-3a,4a-diaza-s-indacene (BODIPY), resulting in the conjugate Cyclo(CK-(BODIPY)-ASAPPSCYDGDD). The detailed procedure for synthesis of the peptide is described in our previous work. Peptides SFTI-a and SFTI-a with lysine azide (N3) and fluorescence-labeled SFTI-a were purified by preparative HPLC (Waters Corp., MA, USA) using acetonitrile and water containing 0.1% TFA. Molecular weights of the synthesized peptide and the conjugate were confirmed by mass spectrometry. BODIPY was obtained from Dr Vicente, Department of Chemistry, Louisiana State University, LA, USA.
as §1
The microscopic visualization was carried out on an Olympus Fluoview FV10i confocal microscope. DAPI (excitation 359, emission 461) and Texas Red (excitation 595, emission 612) filters were used for detection purposes at 60x zoom. For SFTI-a BODIPY conjugate, a Mg+ green (excitation 507, emission 531) filter was used. Different images were taken from each well containing different concentrations of SFTI-a and cells only. All images were taken in a single plane and at 60x magnification.

CD58 protein = details: cited from earlier work
Text: (§2) In almost all physiological processes, the medium for communication between two cells is facilitated by the interaction of proteins. The up- or down-regulation of proteins and the deregulated interaction of these proteins usually lead to disease conditions. Rational drug designs targeting these protein–protein interactions (PPI) have gained much popularity in the past decade. […] Many proteins interact at the cell surface to send signals inside the cell from the extracellular region, and PPI on the cell surface are targ ...

CD2–CD58 interaction [3] = details: cited from earlier work
Text: as §2

[4] = test system: cell adhesion in the immune response; details: cell-based in vitro and ex vivo assays; cited from earlier work
Text: as §2

CD58 adhesion domain = details: relatively weak but highly specific interaction; background statement, reference printed only at the preceding sentence; read-out: Kd of CD2–CD58 interaction; cited from earlier work
Text: as §2

[5] = listed as BODIPY conjugate of SFTI-a

| Molecule | PPI inhibition by BODIPY conjugate (red fluorescence) (CD2–CD58 interaction [1]) | PPI inhibition by BODIPY conjugate (red fluorescence) (CD2–CD58 interaction [1]; [5]) | binding to CD58 on HFLS-RA cell surface [2] | binding to CD58 on HFLS-RA cell surface [2, 5] | reduction in number of red dots (CD2–CD58 interaction [1]; 50 nM SFTI-a) | reduction in number of red dots (CD2–CD58 interaction [1]; 250 nM SFTI-a) | PPI inhibition, number of red dots (ImageJ) (CD2–CD58 interaction [1]; 10 μM SFTI-a) | PPI inhibition, number of red dots (ImageJ) (CD2–CD58 interaction [1]; 50 μM SFTI-a) | decrease in red dots (CD2–CD58 PPI inhibition) (CD2–CD58 interaction [1]; 100 μM SFTI-a, HFLS-RA cells treated 2 h at 4°C, added over Jurkat cells, 48 h at 37°C, confocal microscopy 60x, vs cells without peptide) | PPI inhibition, number of red dots (ImageJ) (CD2–CD58 interaction [1]; 100 μM SFTI-a) | PPI inhibition at different concentrations (dose dependence) (CD2–CD58 interaction [1]; different concentrations of SFTI-a (50 nM, 250 nM, 1 μM, 10 μM, 50 μM, 100 μM), HFLS-RA cells treated 2 h at 4°C, co-culture with Jurkat cells 48 h at 37°C, red dots) | binding to CD58 (CD58 protein) | inhibition of CD2–CD58 interaction (CD2–CD58 interaction [3]) | inhibition of cell adhesion in the immune response, suppression of T-cell immune response [4] | Kd (CD58 adhesion domain) [µM] |
| --- | --- | --- | --- | --- | --- | --- | --- | --- | --- | --- | --- | --- | --- | --- | --- |
| Cyclo(CK-(BODIPY)-ASAPPSCYDGDD) (bicyclic or more) [SFTI-a conjugate, fluorescently labeled peptide with BODIPY attachment via azide side chain of Lys] | inhibit the interaction between Jurkat cells and HFLS-RA cells | able to inhibit PPI as shown by a decrease in red fluorescence compared to control | bound to the cell surface of HFLS-RA cells as shown by green fluorescence of BODIPY | green fluorescence on HFLS-RA cells due to binding of a conjugate of SFTI-a to CD58 on cells | – | – | – | – | – | – | – | – | – | – | – |
| Cyclo(CKASAPPSCYDGDD) (bicyclic or more) [SFTI-a] | – | – | bind to CD58 on the cell surface | – | significant reduction in a number of red dots | significant reduction in a number of red dots | significant in comparison with that of untreated wells | significant in comparison with that of untreated wells | significant decrease in red dots; also recorded: decrease in the number of red dots | significant in comparison with that of untreated wells | significant decrease in bright red spots; also recorded: dose-dependent inhibition of the interaction between CD2 and CD58 proteins | binds to the CD58 protein | inhibits CD2–CD58 interaction | potent compound for inhibiting cell adhesion in the immune response | – |
| CD2: T-cell surface adhesion protein, binding partner of CD58 (protein) KEITNALETWGALGQDINLDIPSFQMSDDIDDIKWEKTSDKKKIAQFRKEKETFKEKDTYKLFKNGTLKIKHLKTDDQDIYKVSIYDTKGKNVLEKIFDLKIQERVSKPKISWTCINTTLTCEVMNGTDPELNLYQDGKHLKLSQRVITHKWTTSLSAKFKCTAGNKVSKESSVEPVSCPEKGLDIYLIIGICGGGSLLMVFVALLVFYITKRKKQRSRRNDEELETRAHRVATEERGRKPHQIPASTPQNPATSQHPPPPPGHRSQAPSHRPPPPGHRVQHQPQKRPPAPSGTQVHQQKGPPLPRPRVQPKPPHGAAENSLSPSSN | – | – | – | – | – | – | – | – | – | – | – | – | – | – | 1 to 10 |
